Measurements published in the supplement of paper PMC13380429.

Legend:
U2OS [1] = assay: cell viability relative to DMSO; higher = less toxic; conditions: 72 h
Vero E6 [2] = assay: as above; conditions: 72 h
Calu-3 [3] = assay: as above; conditions: 72 h
HepG2 [4] = assay: as above; conditions: 72 h
Caco-2 [5] = assay: as above; conditions: 72 h
[6] = tested on: A549-ACE2 infected with SARS-CoV-2; assay: SARS-CoV-2 infection rate relative to DMSO; higher = more infection; conditions: 24 h
A549-ACE2 [7] = assay: drug-induced phospholipidosis relative to tamoxifen; higher = more phospholipidosis
[8] = tested on: A549-ACE2 infected with SARS-CoV-2; assay: cell count relative to DMSO; higher = less toxic; conditions: 24 h
U2OS [9] = assay: drug sensitivity score (DSS) for viability; higher = more toxic; extreme values may be limits of the assay; conditions: 72 h
Vero E6 [10] = assay: as above; conditions: 72 h
Calu-3 [11] = assay: as above; conditions: 72 h
HepG2 [12] = assay: as above; conditions: 72 h
Caco-2 [13] = assay: as above; conditions: 72 h
[14] = tested on: A549-ACE2 infected with SARS-CoV-2; assay: morphology score (similarity to uninfected cells); higher = more like uninfected cells; conditions: 24 h
U2OS [15] = assay: relative viability EC50 (midpoint between 100% and the lowest measured viability); higher = less toxic; conditions: 72 h
Vero E6 [16] = assay: as above; conditions: 72 h
Calu-3 [17] = assay: as above; conditions: 72 h
HepG2 [18] = assay: as above; conditions: 72 h
Caco-2 [19] = assay: as above; conditions: 72 h
A549-ACE2 [20] = assay: phospholipidosis EC50; higher = less potent phospholipidosis inducer

OC1=c2ccccc2=C(NC2CCCCC2)/C1=C\c1ccccc1
Conditions	SARS-CoV-2 infection rate, [6] [%]	cell count, [8] [%]	cell viability, Caco-2 [5] [%]	cell viability, Calu-3 [3] [%]	cell viability, HepG2 [4] [%]	cell viability, U2OS [1] [%]	cell viability, Vero E6 [2] [%]	morphology score, [14]
1 nM	–	–	107	89.1	95.6	98.9	93.6	–
10 nM	–	–	92	82.2	104	99.4	95.2	–
100 nM	–	–	96	90.1	101	108	96.9	–
0.1 µM	96	99	–	–	–	–	–	-0.03
0.3 µM	99	101	–	–	–	–	–	0.22
1000 nM	–	–	88.3	99.5	93	83	91.7	–
1 µM	103	99	–	–	–	–	–	-0.06
3 µM	93	73	–	–	–	–	–	0.11
10000 nM	–	–	32.8	35.8	1.2	0.1	10.5	–

drug-induced phospholipidosis [%], A549-ACE2 [7]
Conditions	0.3 µM	0.833333 µM	3.33333 µM	30 µM
24 h	2.77	-0.77	1.63	12.9
48 h	0.98	-0.44	6.41	–
72 h	1.89	-2.33	6.19	–

Conditions	drug sensitivity score	relative viability EC50
Caco-2 [13]	5.6	–
Caco-2 [19]	–	1860 nM
Calu-3 [11]	3.6	–
Calu-3 [17]	–	3.1 µM
HepG2 [12]	6.5	–
HepG2 [18]	–	2590 nM
U2OS [9]	8.3	–
U2OS [15]	–	1880 nM
Vero E6 [10]	6.3	–
Vero E6 [16]	–	2.4 µM

CC(C)(C)c1ccc(C(=O)CCCN2CCC(OC(c3ccccc3)c3ccccc3)CC2)cc1 [ebastine]
Conditions	SARS-CoV-2 infection rate [%]	cell count [%]	cell viability [%]	morphology score	phospholipidosis EC50 [µM]
A549-ACE2 [20], 24 h	–	–	–	–	3.13
A549-ACE2 [20], 48 h	–	–	–	–	22.1
A549-ACE2 [20], 72 h	–	–	–	–	17.3
Caco-2 [5], 1 nM	–	–	97.6	–	–
Caco-2 [5], 10 nM	–	–	102	–	–
Caco-2 [5], 100 nM	–	–	104	–	–
Caco-2 [5], 1000 nM	–	–	98.8	–	–
Caco-2 [5], 10000 nM	–	–	68.2	–	–
Calu-3 [3], 1 nM	–	–	96.4	–	–
Calu-3 [3], 10 nM	–	–	95.7	–	–
Calu-3 [3], 100 nM	–	–	106	–	–
Calu-3 [3], 1000 nM	–	–	101	–	–
Calu-3 [3], 10000 nM	–	–	60.2	–	–
HepG2 [4], 1 nM	–	–	89.3	–	–
HepG2 [4], 10 nM	–	–	110	–	–
HepG2 [4], 100 nM	–	–	101	–	–
HepG2 [4], 1000 nM	–	–	108	–	–
HepG2 [4], 10000 nM	–	–	60.5	–	–
U2OS [1], 1 nM	–	–	99	–	–
U2OS [1], 10 nM	–	–	94.6	–	–
U2OS [1], 100 nM	–	–	102	–	–
U2OS [1], 1000 nM	–	–	93.6	–	–
U2OS [1], 10000 nM	–	–	87.9	–	–
Vero E6 [2], 1 nM	–	–	88.3	–	–
Vero E6 [2], 10 nM	–	–	98.7	–	–
Vero E6 [2], 100 nM	–	–	92.1	–	–
Vero E6 [2], 1000 nM	–	–	92	–	–
Vero E6 [2], 10000 nM	–	–	86.8	–	–
[6], 0.3 µM	105	–	–	–	–
[6], 3 µM	44	–	–	–	–
[6], 10 µM	26	–	–	–	–
[6], 30 µM	26	–	–	–	–
[8], 0.3 µM	–	99	–	–	–
[8], 3 µM	–	117	–	–	–
[8], 10 µM	–	111	–	–	–
[8], 30 µM	–	58	–	–	–
[14], 0.3 µM	–	–	–	-0.12	–
[14], 3 µM	–	–	–	0.71	–
[14], 10 µM	–	–	–	0.8	–
[14], 30 µM	–	–	–	0.25	–

drug-induced phospholipidosis [%], A549-ACE2 [7]
Conditions	0.3 µM	0.833333 µM	3.33333 µM	6.66667 µM	10 µM	30 µM
24 h	8.24	11.3	46.9	67.3	73.2	55.4
48 h	5.48	4.12	27.6	52.1	76.4	–
72 h	5.22	0.608	24.1	42.2	62.6	–

Conditions	drug sensitivity score	relative viability EC50
Caco-2 [13]	1.6	–
Calu-3 [11]	1.9	–
HepG2 [12]	1.5	–
U2OS [9]	0.3	–
U2OS [15]	–	> 10000 nM
Vero E6 [10]	0	–
Vero E6 [16]	–	> 10 µM

Cc1ccc(-n2nc(C(C)(C)C)cc2NC(=O)Nc2ccc(OCCN3CCOCC3)c3ccccc23)cc1 [doramapimod]
Conditions	SARS-CoV-2 infection rate, [6] [%]	cell count, [8] [%]	cell viability, Caco-2 [5] [%]	cell viability, Calu-3 [3] [%]	cell viability, HepG2 [4] [%]	cell viability, U2OS [1] [%]	cell viability, Vero E6 [2] [%]	morphology score, [14]
1 nM	–	–	93.8	114	107	98.6	108	–
10 nM	–	–	108	97.3	105	104	95.2	–
100 nM	–	–	89.3	92.4	99.7	91.6	95.5	–
0.3 µM	105	91	–	–	–	–	–	-0.27
1000 nM	–	–	90.9	97.2	104	93.7	95.7	–
3 µM	68	105	–	–	–	–	–	0.36
10000 nM	–	–	93.6	88.4	111	95.6	104	–
10 µM	72	115	–	–	–	–	–	0.7
30 µM	16	70	–	–	–	–	–	0.44

drug-induced phospholipidosis [%], A549-ACE2 [7]
Conditions	0.3 µM	0.833333 µM	3.33333 µM	6.66667 µM	10 µM	30 µM
24 h	-1.22	-3.86	-2.5	7.51	20.8	66.3
48 h	-2.88	-4.62	-1.1	6.99	15.5	–
72 h	-1.89	-3.86	1.71	12.1	19.8	–

Conditions	drug sensitivity score	relative viability EC50
Caco-2 [13]	0.3	–
Caco-2 [19]	–	> 10000 nM
Calu-3 [11]	0	–
Calu-3 [17]	–	> 10 µM
HepG2 [12]	0	–
HepG2 [18]	–	> 10000 nM
U2OS [9]	0	–
U2OS [15]	–	> 10000 nM
Vero E6 [10]	0	–
Vero E6 [16]	–	> 10 µM

C[C@H](Oc1cc(-c2cnn(C3CCNCC3)c2)cnc1N)c1c(Cl)ccc(F)c1Cl [crizotinib-(S)]
Conditions	SARS-CoV-2 infection rate [%]	cell count [%]	cell viability [%]	morphology score	phospholipidosis EC50 [µM]
A549-ACE2 [20], 24 h	–	–	–	–	1.79
A549-ACE2 [20], 48 h	–	–	–	–	3.04
A549-ACE2 [20], 72 h	–	–	–	–	3.1
Caco-2 [5], 1 nM	–	–	93.9	–	–
Caco-2 [5], 10 nM	–	–	95.3	–	–
Caco-2 [5], 100 nM	–	–	99.2	–	–
Caco-2 [5], 1000 nM	–	–	95.1	–	–
Caco-2 [5], 10000 nM	–	–	62.1	–	–
Calu-3 [3], 1 nM	–	–	97.8	–	–
Calu-3 [3], 10 nM	–	–	96.2	–	–
Calu-3 [3], 100 nM	–	–	100.3	–	–
Calu-3 [3], 1000 nM	–	–	100.4	–	–
Calu-3 [3], 10000 nM	–	–	40	–	–
HepG2 [4], 1 nM	–	–	100	–	–
HepG2 [4], 10 nM	–	–	108	–	–
HepG2 [4], 100 nM	–	–	104	–	–
HepG2 [4], 1000 nM	–	–	90.9	–	–
HepG2 [4], 10000 nM	–	–	43.3	–	–
U2OS [1], 1 nM	–	–	98.3	–	–
U2OS [1], 10 nM	–	–	96.3	–	–
U2OS [1], 100 nM	–	–	99.2	–	–
U2OS [1], 1000 nM	–	–	96	–	–
U2OS [1], 10000 nM	–	–	41.1	–	–
Vero E6 [2], 1 nM	–	–	97.2	–	–
Vero E6 [2], 10 nM	–	–	99.6	–	–
Vero E6 [2], 100 nM	–	–	100	–	–
Vero E6 [2], 1000 nM	–	–	97	–	–
Vero E6 [2], 10000 nM	–	–	80.7	–	–
[6], 0.1 µM	96	–	–	–	–
[6], 0.3 µM	100	–	–	–	–
[6], 1 µM	94	–	–	–	–
[6], 3 µM	30	–	–	–	–
[6], 10 µM	24	–	–	–	–
[6], 30 µM	82	–	–	–	–
[8], 0.1 µM	–	100	–	–	–
[8], 0.3 µM	–	102	–	–	–
[8], 1 µM	–	87	–	–	–
[8], 3 µM	–	93	–	–	–
[8], 10 µM	–	109	–	–	–
[8], 30 µM	–	18	–	–	–
[14], 0.1 µM	–	–	–	0.15	–
[14], 0.3 µM	–	–	–	0.025	–
[14], 1 µM	–	–	–	0.27	–
[14], 3 µM	–	–	–	0.71	–
[14], 10 µM	–	–	–	0.36	–
[14], 30 µM	–	–	–	-0.08	–

drug-induced phospholipidosis [%], A549-ACE2 [7]
Conditions	0.3 µM	0.833333 µM	3.33333 µM	6.66667 µM	10 µM	30 µM
24 h	8.27	14.6	93.6	107	67.9	67.2
48 h	6.57	10.9	65	95.4	72.5	79.1
72 h	6.4	9.01	64.9	97.9	71.4	94.9

Conditions	drug sensitivity score	relative viability EC50
Caco-2 [13]	2.6	–
Calu-3 [11]	3.2	–
Calu-3 [17]	–	3.21 µM
HepG2 [12]	4.45	–
HepG2 [18]	–	2220 nM
U2OS [9]	3.9	–
U2OS [15]	–	2610 nM
Vero E6 [10]	0.8	–
